Legend:
[1] = molecular target: T1, Full length DGKζ (in-house protein M1-V929) (Homo sapiens, UniProt Q13574); test: Biochemical DGK IC50 assay (ADP-Glo, lipid micelle substrate), DGKζ; settings: 1 hour preincubation, 1 hour reaction, room temperature
T1 construct: His (N); TEV site (N); made in house; host or cells: Sf9 insect cells (Bac-to-Bac baculovirus)
Method: (§1) Enzymatic reactions of DGKζ, DGKα and DGKδ were performed using ADP-Glo assay with lipid micelle substrate. […] Full length DGKα (D21-10BG, SignalChem) and full length DGKδ (D23-10G, SignalChem) were purchased. Lipid micelle was prepared by dissolving DAG (Sigma, 317505-10 MG) and PS (Sigma, P7769-100 MG) with chloroform which was furtherly removed by rotary evaporation. The obtained residue was resuspended in buffer containing 25 mM HEPES pH 7.0, 0.5 mM EDTA and 160 mM Octyl β-D glucopyranoside by vigorous mixing and ultrasonic (IID, Scientz).
(§2) The inhibition activities testing for the compound disclosed herein were carried out at room temperature in assay buffer containing 50 mM HEPES, 10 mM MgCl2, 0.01% BSA, 0.1 mM Na3VO4, 0.005% Tween-20 and 0.01 mM CaCl2). Compounds in DMSO were dispensed into wells of a black 384 well plate (Corning 4514) using D300e digital dispenser (Tecan). […] 3 μL 2× enzyme solution was added to wells. […] After 1 hour reaction, 5 μL ADP-Glo reagent (Promga V9101) was added and incubated for 40 minutes. 10 μL Kinase Detection reagent was added and incubated for 30 minutes. Luminescence was measured on a microplate reader (PHERAstar FSX, BMG labtech). The IC50S are calculated based on inhibition of enzyme activity in the presence of increasing concentrations of compounds.
Human His-TEV-DGK-zeta-pFastBac1 and human baculovirus samples was generated using the Bac- to -Bac baculovirus expression system (Invitrogen) according to the manufacturer's protocol. The DNA used for expression of DGK-zeta, have SEQ ID Nos: 1. Baculovirus amplification was achieved using infected SF9 cells at 1:2000 virus/cells ratios, and grown for 96 hours at 27° C. post-transfected.
The expression scaled up for each protein was carried out in the […] from CORNING. 4 L of 3×10^6 cells/mL Sf9 cells (Expression System, Invitrogen) grown in SF900™ II SFM insect medium (Expression System) was infected with virus stock at 1:200 virus/cells ratio, and grown for 48 hours at 27° C. post-transfection. The infected cell culture was harvested by centrifugation at 6000 rpm for 15 min 4° C. in a SORVALL LYNX6000 centrifuge. The cell pellets were stored at −80° C.
Full length human DGKζ produced as described above, was purified from Sf9 baculovirus-infected insect cell paste. The cells were lysed using sonication method, and the lysates were clarified by centrifugation.

[2] = molecular target: T2, Full length DGKα (D21-10BG, SignalChem) (Homo sapiens, UniProt P23743); test: Biochemical DGK IC50 assay (ADP-Glo, lipid micelle substrate), DGKα; settings: 1 hour preincubation, 1 hour reaction, room temperature
T2 construct: Full length DGKα (D21-10BG, SignalChem); purchased SignalChem D21-10BG
T2 sequence (P23743 whole entry): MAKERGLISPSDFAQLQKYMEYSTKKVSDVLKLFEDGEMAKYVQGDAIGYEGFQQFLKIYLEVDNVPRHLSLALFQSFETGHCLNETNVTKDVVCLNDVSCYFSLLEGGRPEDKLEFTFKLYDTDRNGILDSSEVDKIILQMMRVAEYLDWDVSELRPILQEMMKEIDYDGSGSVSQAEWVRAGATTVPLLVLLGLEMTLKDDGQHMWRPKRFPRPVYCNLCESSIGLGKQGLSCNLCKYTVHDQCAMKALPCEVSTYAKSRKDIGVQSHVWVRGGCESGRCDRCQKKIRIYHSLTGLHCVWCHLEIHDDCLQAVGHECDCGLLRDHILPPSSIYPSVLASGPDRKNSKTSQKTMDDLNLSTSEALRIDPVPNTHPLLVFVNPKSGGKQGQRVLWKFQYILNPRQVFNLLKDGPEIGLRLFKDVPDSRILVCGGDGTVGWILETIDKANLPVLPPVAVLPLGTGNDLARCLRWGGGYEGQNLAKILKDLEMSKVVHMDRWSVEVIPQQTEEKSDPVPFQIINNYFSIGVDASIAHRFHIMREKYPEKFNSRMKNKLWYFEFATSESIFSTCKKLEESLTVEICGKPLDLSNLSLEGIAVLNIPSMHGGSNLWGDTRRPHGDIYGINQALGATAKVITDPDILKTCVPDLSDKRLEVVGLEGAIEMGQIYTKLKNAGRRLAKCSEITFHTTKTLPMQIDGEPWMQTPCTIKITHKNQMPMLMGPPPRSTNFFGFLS
Method: as §1, §2

T1 sequence (Q13574 1-929 isoform Q13574-4): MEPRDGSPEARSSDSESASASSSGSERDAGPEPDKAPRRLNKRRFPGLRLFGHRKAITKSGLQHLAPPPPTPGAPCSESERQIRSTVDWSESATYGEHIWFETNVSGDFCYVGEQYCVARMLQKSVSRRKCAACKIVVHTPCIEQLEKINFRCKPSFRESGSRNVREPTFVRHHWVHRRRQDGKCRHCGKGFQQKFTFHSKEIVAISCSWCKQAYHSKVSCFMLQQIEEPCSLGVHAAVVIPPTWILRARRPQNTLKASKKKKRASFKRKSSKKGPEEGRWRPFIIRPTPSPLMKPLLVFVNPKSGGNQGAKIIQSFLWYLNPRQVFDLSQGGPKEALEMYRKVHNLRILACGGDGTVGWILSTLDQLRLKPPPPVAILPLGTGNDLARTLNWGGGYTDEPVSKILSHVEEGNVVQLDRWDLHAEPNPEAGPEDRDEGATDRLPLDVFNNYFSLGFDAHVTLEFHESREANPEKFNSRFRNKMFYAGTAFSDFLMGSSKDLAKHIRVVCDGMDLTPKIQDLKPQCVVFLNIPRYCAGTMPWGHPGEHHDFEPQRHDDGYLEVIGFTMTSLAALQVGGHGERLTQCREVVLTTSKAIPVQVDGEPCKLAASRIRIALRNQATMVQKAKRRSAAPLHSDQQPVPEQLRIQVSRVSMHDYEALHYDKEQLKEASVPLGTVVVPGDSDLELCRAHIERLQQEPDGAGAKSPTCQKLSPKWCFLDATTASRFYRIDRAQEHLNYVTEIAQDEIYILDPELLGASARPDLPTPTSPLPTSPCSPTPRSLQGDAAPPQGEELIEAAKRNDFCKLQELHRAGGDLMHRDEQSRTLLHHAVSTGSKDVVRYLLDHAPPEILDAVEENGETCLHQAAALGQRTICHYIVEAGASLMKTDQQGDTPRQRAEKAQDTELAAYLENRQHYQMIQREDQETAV

Row | IC50 [1] [nM] | IC50 [2] [nM] | SMILES
1 | 176 | 666 | CC(c1ccc(C(F)(F)F)cn1)N1C[C@H](C)N(c2nc(=O)n(C)c3c2nc(CC#N)n3C)C[C@H]1C (single isomer, unassigned) [Compound A148b]
2 | 18 | 128000 | [2H]C([2H])([2H])n1c(CC#N)nc2c(N3C[C@@H](C)N(C(C)c4ccc(F)cc4C(F)(F)F)C[C@@H]3C)nc(=O)n(C)c21 (stereo partly drawn) [Compound A37, 2-(6-((2S,5R)-4-(1-(4-fluoro-2-(trifluoromethyl)phenyl)ethyl)-2,5-dimethylpiperazin-1-yl)-3-methyl-9-(methyl-d3)-2-oxo-3,9-dihydro-2H-purin-8-yl)acetonitrile]
3 | 32 | 6380 | CC(c1ccc2c(c1)OCCO2)N1C[C@H](C)N(c2c(F)c(=O)n(C)c3c2nc(CC#N)n3C)C[C@H]1C (single isomer, unassigned) [Compound A18b]
4 | 217 | 15800 | CC[C@@H]1CN(c2nc(=O)n(CC)c3c2nc(CC#N)n3C)[C@@H](C)CN1C(C)c1ccc2c(c1)OC(C)(C)CO2 (single isomer, unassigned) [Compound A66a]
5 | 15 | 308 | CC[C@H]1CN(C(C)c2ccc(C(F)(F)F)cc2)[C@H](CC)CN1c1nc(=O)n(C)c2c1nc(CC#N)n2C (single isomer, unassigned) [Compound A149b]
6 | 839 | > 150000 | CCn1c(CC#N)nc2c(N3C[C@@H](C)N(C(C)c4csc(C(F)(F)F)n4)C[C@@H]3C)nc(=O)n(C)c21 (stereo partly drawn) [Compound A104, 2-(6-((2S,5R)-2,5-dimethyl-4-(1-(2-(trifluoromethyl)thiazol-4-yl)ethyl)piperazin-1-yl)-9-ethyl-3-methyl-2-oxo-3,9-dihydro-2H-purin-8-yl)acetonitrile]
7 | 419 | > 150000 | CCn1c(CC#N)nc2c(N3C[C@@H](C)N(C(C)c4cnc5c(c4)OC(C)(C)CO5)C[C@@H]3C)nc(=O)n(C)c21 (stereo partly drawn) [Compound A76, 2-(6-((2S,5R)-4-(1-(2,2-dimethyl-2,3-dihydro-[1,4]dioxino[2,3-b]pyridin-7-yl)ethyl)-2,5-dimethylpiperazin-1-yl)-9-ethyl-3-methyl-2-oxo-3,9-dihydro-2H-purin-8-yl)acetonitrile]
8 | 1 | 6860 | CC[C@@H]1CN(c2nc(=O)n(CC)c3c2nc(CC#N)n3C)[C@@H](C)CN1C(C)c1ccc2c(c1)OC(C)(C)CO2 (single isomer, unassigned) [Compound A66b]
9 | 42 | 61900 | CCn1c(CC#N)nc2c(N3C[C@@H](C)N(C(C)c4cccc(C(F)(F)F)c4)C[C@@H]3C)nc(=O)n(C)c21 (mixture of isomers) [Compound A42, 2-(6-((2S,5R)-2,5-dimethyl-4-(1-(3-(trifluoromethyl)phenyl)ethyl)piperazin-1-yl)-9-ethyl-3-methyl-2-oxo-3,9-dihydro-2H-purin-8-yl)acetonitrile]
10 | 7 | 7190 | CCn1c(CC#N)nc2c(N3C[C@@H](C)N(C(C)c4c(F)cc5c(c4F)OC(C)(C)O5)C[C@@H]3C)nc(=O)n(C)c21 (single isomer, unassigned) [Compound A176b]
11 | 3740 | > 10000 | Cc1ccc(C(C)N2C[C@H](C)N(c3nc(=O)n(C)c4c3nc(CC#N)n4C)C[C@H]2C)c(C(F)(F)F)c1 (single isomer, unassigned) [Compound A32a]
12 | 3 | > 10000 | CC(c1ccc(F)cc1C(F)(F)F)N1C[C@H](C)N(c2nc(=O)n(C)c3c2nc(CC#N)n3C)C[C@H]1C (single isomer, unassigned) [Compound A33b]
13 | 74 | > 150000 | CCn1c(CC#N)nc2c(N3C[C@@H](C)N(C(C)c4ccc5c(c4)OC(C)(C)O5)C[C@@H]3C)c(F)c(=O)n(C)c21 (stereo partly drawn) [Compound A188, 2-(7-((2S,5R)-4-(1-(2,2-dimethylbenzo[d][1,3]dioxol-5-yl)ethyl)-2,5-dimethylpiperazin-1-yl)-3-ethyl-6-fluoro-4-methyl-5-oxo-4,5-dihydro-3H-imidazo[4,5-b]pyridin-2-yl)acetonitrile]
14 | 806 | 121000 | CCn1c(CC#N)nc2c(N3C[C@@H](C)N(C(C)c4ccc(F)c5c4OC(C)(C)O5)C[C@@H]3C)nc(=O)n(C)c21 (single isomer, unassigned) [Compound A185a]
15 | 128 | 55600 | CCn1c(CC#N)nc2c(N3C[C@@H](C)N(C(C)c4ccc5c(c4)OC(F)(F)O5)C[C@@H]3C)nc(=O)n(C)c21 (stereo partly drawn) [Compound A99, 2-(6-((2S,5R)-4-(1-(2,2-difluorobenzo[d][1,3]dioxol-5-yl)ethyl)-2,5-dimethylpiperazin-1-yl)-9-ethyl-3-methyl-2-oxo-3,9-dihydro-2H-purin-8-yl)acetonitrile]
16 | 4 | 21400 | CCn1c(CC#N)nc2c(N3C[C@@H](C)N(C(C)c4ccc5c(c4F)OC(C)(C)O5)C[C@@H]3C)nc(=O)n(C)c21 (single isomer, unassigned) [Compound A175b]
17 | 46 | > 150000 | CCn1c(CC#N)nc2c(N3C[C@@H](C)N(C(C)c4ccc5c(n4)OC(C)(C)CO5)C[C@@H]3C)nc(=O)n(C)c21 (single isomer, unassigned) [Compound A74a]
18 | 81 | > 150000 | CCn1c(CC#N)nc2c(N3C[C@@H](C)N(C(C)c4nc5c(cc4F)OCC(C)(C)O5)C[C@@H]3C)nc(=O)n(C)c21 (mixture of isomers) [Compound A161, 2-(9-ethyl-6-((2S,5R)-4-(1-(7-fluoro-3,3-dimethyl-2,3-dihydro-[1,4]dioxino[2,3-b]pyridin-6-yl)ethyl)-2,5-dimethylpiperazin-1-yl)-3-methyl-2-oxo-3,9-dihydro-2H-purin-8-yl)acetonitrile]
19 | 199 | 72800 | CC(c1cc(F)c2c(c1)OC(C)(C)CO2)N1C[C@H](C)N(c2nc(=O)n(C)c3c2nc(CC#N)n3C)C[C@H]1C (single isomer, unassigned) [Compound A68b]
20 | 1180 | > 150000 | CCn1c(CC#N)nc2c(N3C[C@@H](C)N(C(C)c4cc5c(cc4Cl)OC(C)(C)O5)C[C@@H]3C)nc(=O)n(C)c21 (stereo partly drawn) [Compound A170, 2-(6-((2S,5R)-4-(1-(6-chloro-2,2-dimethylbenzo[d][1,3]dioxol-5-yl)ethyl)-2,5-dimethylpiperazin-1-yl)-9-ethyl-3-methyl-2-oxo-3,9-dihydro-2H-purin-8-yl)acetonitrile]
21 | 238 | 40300 | CC(c1ccc2c(c1)OC(C)(C)CO2)N1C[C@H](C)N(c2nc(=O)n(C)c3c2nc(CC#N)n3C)C[C@H]1C (single isomer, unassigned) [Compound A59a]
22 | 78 | 40900 | CCn1c(CC#N)nc2c(N3C[C@@H](C)N(C(C)c4ccc5c(=O)cc(C)oc5c4)C[C@@H]3C)nc(=O)n(C)c21 (stereo partly drawn) [Compound A191, 2-(6-((2S,5R)-2,5-dimethyl-4-(1-(2-methyl-4-oxo-4H-chromen-7-yl)ethyl)piperazin-1-yl)-9-ethyl-3-methyl-2-oxo-3,9-dihydro-2H-purin-8-yl)acetonitrile]
23 | 20 | > 150000 | CCn1c(CC#N)nc2c(N3C[C@@H](C)N(C(C)c4ccc5occ(C)c(=O)c5c4)C[C@@H]3C)nc(=O)n(C)c21 (stereo partly drawn) [Compound A91, 2-(6-((2S,5R)-2,5-dimethyl-4-(1-(3-methyl-4-oxo-4H-chromen-6-yl)ethyl)piperazin-1-yl)-9-ethyl-3-methyl-2-oxo-3,9-dihydro-2H-purin-8-yl)acetonitrile]
24 | 4 | 111000 | CCCn1c(CC#N)nc2c(N3C[C@@H](C)N(C(C)c4ccc5c(c4)OC(C)(C)CO5)C[C@@H]3C)nc(=O)n(C)c21 (stereo partly drawn) [Compound A88, 2-(6-((2S,5R)-4-(1-(3,3-dimethyl-2,3-dihydrobenzo[b][1,4]dioxin-6-yl)ethyl)-2,5-dimethylpiperazin-1-yl)-3-methyl-2-oxo-9-propyl-3,9-dihydro-2H-purin-8-yl)acetonitrile]
25 | 35 | > 150000 | CCn1c(CC#N)nc2c(N3C[C@@H](C)N(C(C)c4ccc(F)c(C(F)F)c4)C[C@@H]3C)nc(=O)n(C)c21 (stereo partly drawn) [Compound A112, 2-(6-((2S,5R)-4-(1-(3-(difluoromethyl)-4-fluorophenyl)ethyl)-2,5-dimethylpiperazin-1-yl)-9-ethyl-3-methyl-2-oxo-3,9-dihydro-2H-purin-8-yl)acetonitrile]

— patent publication US20260125378A2, “Heterocyclic Compounds” (BeOne Medicines I GmbH, priority 2023, published 2026)
